In US20090197938A1, “Polyphenol Type Compounds, Compositions Containing Same and Use Thereof for Preventing or Treating Diseases Involving Abnormal Cell Proliferation” (Fluofarma, priority 2005, published 2009):

Legend:
[1] = tested on: cancer cells; test: Effect on cell proliferation at 24H and 48H; assay type: cell-based; details: 24H and 48H (figure)
From the text: (§1) FIG. 1 represents the effect of different concentrations of Castaline on apoptosis at 24H and 48 H and cell proliferation at 24H and 48H.
(§2) FIG. 2 represents the effect of different concentrations of Vescalene on apoptosis at 24H and 48 H and cell proliferation at 24H and 48H.
(§3) FIG. 3 represents the effect of different concentrations of Castalagine on apoptosis at 24H and 48H and cell proliferation at 24H and 48H.
(§4) FIG. 4 represents the effect of different concentrations of Acutissimine on apoptosis at 24H and 48H and cell proliferation at 24H and 48H.

[2] = tested on: cancer cells; details: cited from earlier work
[3] = tested on: DNA topoisomerase II; test: Inhibition of DNA topoisomerase II (decatenation); assay type: biochemical
From the text: Inhibition of DNA Topoisomerase II

[4] = tested on: cancer cells; test: Pro-apoptotic activity (apoptosis at 24H and 48H); assay type: cell-based; details: different concentrations, 24H and 48H (figure)
From the text: as §1, §2, §3, §4

Inhibition of decatenation (%) ([3]; compound concentration 1 μm) | Inhibition of decatenation (%) ([3]; compound concentration 10 μm) | Substance | effect on cell proliferation with subtoxic doses [1] | proliferation of cancer cells with subtoxic doses (background statement) [2] | pro-apoptotic activity [4]
– | – | Castalagine [reference compound] | increases cell proliferation | stimulate the proliferation of cancer cells | –
– | – | epiacutissamine A | – | stimulate the proliferation of cancer cells | –
– | – | Acutissimine A [reference compound] | increases cell proliferation | stimulate the proliferation of cancer cells | –
– | – | epiacutissamine B | – | stimulate the proliferation of cancer cells | –
87.9% | 67.0% | Castaline | does not increase cell proliferation in a noteworthy manner | – | has a pro-apototic activity
– | – | vescalagine | – | stimulate the proliferation of cancer cells | –
78.8% | 97.3% | Vescalene | does not increase cell proliferation in a noteworthy manner | – | has a pro-apoptotic activity
– | – | acutissimine B | – | stimulate the proliferation of cancer cells | –

Substance | Inhibition of decatenation (%) ([3]; compound concentration 1 μm) | Inhibition of decatenation (%) ([3]; compound concentration 10 μm) | effect on cell proliferation with subtoxic doses [1] | proliferation of cancer cells with subtoxic doses (background statement) [2] | pro-apoptotic activity [4]
Vescaline | 95.5% | 100% | – | – | –
